We go through nine molecules from patent US4740233A, “Substituted 1,2,4-triazolo[1,5-a]-pyrimidine-2-sulfonamides and compositions and methods of controlling undesired vegetation and suppressing the nitrification of ammonium nitrogen in soil” (The Dow Chemical Company, priority 1986, dated 1988).

In assay [1] the test system is annual sugar beet variety (SLC03). Briefly: Plant growth regulator activity, preemergence. Type of assay: in vivo. The settings on record: for minimal effective concentration: Beta vulgaris, pre-emergence, 6-7 weeks, read-out: Bolting Inhibition (preemergence), concentration with observed effect; for observed effect (preemergence): 400 ppm. The source says: Using a regular biennial variety, even a bolting-susceptible variety would require a cold treatment of around 10-16 weeks plus a hormone treatement in conjunction with specific light intensities. Thus, for a screening organism, we selected one which would consistently produce bolting on a regular schedule. The screen is run with an annual sugar beet variety (SLC03) provided by Dr. Richard J. Hecker, Fort Collins, Colo. This variety is an inbred which bolts in the 6- to 8-leaf stage without any need for vernalization. This allows the screen to be run entirely in the greenhouse with all 110 chemical compounds tested on one tray. The sugarbeets are grown in 3×3 inch square pots in a greenhouse sandy loam potting mix. The sugarbeets are sprayed with test compounds when they are 2 to 3 weeks old (2 true leaves). The compounds are dissolved in acetone and diluted with water containing Tween 20 as a wetting agent. The concentration of acetone in the final spray is 20% and the concentration of Tween 20 is 0.05 percent. The plants are examined for the appearance of a bolt 4 weeks after spraying.
Preemergence tests are conducted by spraying formulated chemical on seeds placed on potting soil. The sprayed seeds are then covered with 1/4 inch of potting soil and the pots are watered. Bolting is evaluated 6-7 weeks after the initiation of the test. At this time untreated plants have a vigorous bolting stem with visible flowers.

The test system of assay [2] is nitrification of ammonium nitrogen. The assay is described as follows: Suppression of nitrification of ammonium nitrogen in soil. The settings on record: 27° C. The procedure, abridged: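 Soil (20 g) moistened to its 1/3 bar tension value, mixed with test chemical and incubated sealed for two weeks at 27° C. Nitrate extracted with ammonium sulfate solution and measured by nitrate-specific ion electrode; value given as % NH4-N remaining.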

For another assay, the system named is johnson grass. Briefly: Preemergent control of plant species. Type of assay: in vivo, Sorghum halepense. The conditions noted are these: Sorghum halepense, pre-emergence, 336 h; 0.25 lb/acre; read-out: percent preemergent control. The procedure, abridged:
(§1)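 Preemergent application of aqueous emulsions at rates given in the table, uniformly over seeded greenhouse soil. Untreated (water) beds as comparison; rating after 2 weeks as reduction in growth.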

Assay [3] relates to yellow nutsedge. Briefly: Preemergent control of plant species. Type of assay: in vivo, Cyperus esculentus. The settings on record: Cyperus, pre-emergence, 336 h; 0.25 lb/acre; read-out: percent preemergent control. Summed up:
as §1

The test system of another assay is sugar beet. The assay is described as follows: Preemergent control of plant species. Type of assay: in vivo, Beta saccharifera. The conditions noted are these: Beta vulgaris, pre-emergence, 336 h; 0.25 lb/acre; read-out: percent preemergent control. The procedure, abridged: as §1
The subject of assay [4] is rice. The assay is described as follows: Preemergent control of plant species. In kind it is in vivo, Oryza sativa. The settings on record: Oryza sativa, pre-emergence, 336 h; 0.25 lb/acre; read-out: percent preemergent control. The procedure, abridged:
as §1

A further assay relates to annual morning glory. The assay is described as follows: Preemergent control of plant species. Type of assay: in vivo, Ipomoea spp. The settings on record: Ipomoea, pre-emergence, 336 h; 0.25 lb/acre; read-out: percent preemergent control. Summed up: as §1
In another assay the test system is crabgrass. The assay is described as follows: Preemergent control of plant species. Type of assay: in vivo, Digitaria spp. The conditions noted are these: Digitaria sanguinalis, pre-emergence, 336 h; 0.25 lb/acre; read-out: percent preemergent control. Summed up: as §1
Another assay concerns cotton. The assay is described as follows: Preemergent control of plant species. Type of assay: in vivo, Gossypium spp. The settings on record: Gossypium hirsutum, pre-emergence, 336 h; 0.25 lb/acre; read-out: percent preemergent control. The procedure, abridged:
as §1

The subject of a further assay is rape. The assay is described as follows: Preemergent control of plant species. In kind it is in vivo, Brassica napus. The settings on record: Brassica napus, pre-emergence, 336 h; 0.25 lb/acre; read-out: percent preemergent control. The procedure, abridged: as §1
The subject of another assay is velvetleaf. The assay is described as follows: Preemergent control of plant species. Type of assay: in vivo, Abutilon theophrasti. The conditions noted are these: Abutilon theophrasti, pre-emergence, 336 h; 0.25 lb/acre; read-out: percent preemergent control. Summed up: as §1
In another assay the test system is jimsonweed. The assay is described as follows: Preemergent control of plant species. In kind it is in vivo, Datura stramonium. The conditions noted are these: Datura stramonium, pre-emergence, 336 h; 0.25 lb/acre; read-out: percent preemergent control. Summed up: as §1
The test system of another assay is pigweed. The assay is described as follows: Preemergent control of plant species. Type of assay: in vivo, Amaranthus spp. The settings on record: Amaranthus retroflexus, pre-emergence, 336 h; 0.25 lb/acre; read-out: percent preemergent control. Summed up: as §1
The test system of the next assay is wheat. Briefly: Preemergent control of plant species. In kind it is in vivo, Triticum aestivum. The conditions noted are these: Triticum aestivum, pre-emergence, 336 h; 0.25 lb/acre; read-out: percent preemergent control. Summed up: as §1
Assay [5] has as its system yellow nutsedge. The assay is described as follows: Control of aquatic plant species (paddy water). Type of assay: in vivo, Cyperus esculentus. The conditions noted are these: Cyperus, 216 h, nine days, read-out: Percent control. The procedure, abridged:
(§2)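 First, young plants (1-2 inch stage) were set into about 2 inches of soil. Next, pots were flooded to about 1 inch depth. Then acetone concentrate was injected into the water at varying volumes to give the intended concentration. Finally, control was assessed after nine days.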

The next assay relates to sorghum. The assay is described as follows: Preemergent control of plant species. Type of assay: in vivo, Sorghum vulgare. The conditions noted are these: Sorghum, pre-emergence, 336 h; 0.25 lb/acre; read-out: percent preemergent control. Summed up:
as §1

Assay [6] deals with barnyardgrass. The assay is described as follows: Control of aquatic plant species (paddy water). In kind it is in vivo, Echinochloa crusgalli. The settings on record: Echinochloa crus-galli, 216 h, nine days, read-out: Percent control. How it is done:
In testing for such utility, the plant species to be tested were transplanted into 16 oz. containers into about 2 inches of soil when they were in the 1-2 inch stage and then flooded to a depth of about 1 inch. An acetone concentrate of the chemical to be tested was then injected into the paddy water, the volume injected being varied as desired to provide the desired concentration. Percent control was evaluated nine days after application.

The next assay relates to sprangletop. The assay is described as follows: Control of aquatic plant species (paddy water). Type of assay: in vivo, Leptochloa filiformis. The conditions noted are these: Leptochloa filiformis, 216 h, nine days, read-out: Percent control. Summed up:
as §2

The subject of another assay is soybean. Briefly: Preemergent control of plant species. In kind it is in vivo, Glycine max. The conditions noted are these: Glycine max, pre-emergence, 336 h; 0.25 lb/acre; read-out: percent preemergent control. Summed up:
as §1

Another assay deals with corn. Briefly: Preemergent control of plant species. The conditions noted are these: Zea mays, pre-emergence, 336 h; 0.25 lb/acre; read-out: percent preemergent control. Type of assay: in vivo, Zea mays. The procedure, abridged:
as §1

The subject of a further assay is yellow foxtail. Briefly: Preemergent control of plant species. In kind it is in vivo, Setaria lutescens. The settings on record: Setaria, pre-emergence, 336 h; 0.25 lb/acre; read-out: percent preemergent control. Summed up: as §1
The subject of another assay is wild oats. Briefly: Preemergent control of plant species. In kind it is in vivo. The conditions noted are these: Avena fatua, pre-emergence, 336 h; 0.25 lb/acre; read-out: percent preemergent control. The procedure, abridged:
as §1

In assay [7] the test system is rice. Briefly: Control of aquatic plant species (paddy water). Type of assay: in vivo, Oryza sativa. The conditions noted are these: Oryza sativa, 216 h, nine days, read-out: Percent control. Summed up:
as §2

The test system of assay [8] is barnyardgrass. The assay is described as follows: Preemergent control of plant species. In kind it is in vivo, Echinochloa crusgalli. The conditions noted are these: Echinochloa crus-galli, pre-emergence, 336 h; 0.25 lb/acre; read-out: percent preemergent control. Summed up: as §1

For `Cc1cc(C)n2nc(S(=O)(=O)Nc3ccccc3C#N)nc2n1` [Compound 14], the minimal effective concentration in assay [1] turned out to be 400 µg/mL. The “% NH4-N Remaining After 2 Weeks Incubation” value in assay [2] (0.01 ppm) turned out to be 0%; in assay [2] (0.1 ppm), 10%; in [2] (1 ppm), 52%; in assay [2] (10 ppm), 77%.

For `CCN(C)S(=O)(=O)c1ccccc1NS(=O)(=O)c1nc2nc(C)cc(C)n2n1` [Compound 16], the minimal effective concentration in assay [1] amounted to 400 µg/mL. Also, the “% NH4-N Remaining After 2 Weeks Incubation” value in assay [2] (0.01 ppm) amounted to 0%; in assay [2] (0.125 ppm) it was 0%; in [2] (1 ppm), 26%; in assay [2] (10 ppm), 67%.

Regarding `Cc1cc(C)n2nc(S(=O)(=O)Nc3cc(C(F)(F)F)ccc3Cl)nc2n1` [Compound 52], the minimal effective concentration in [1] was 100 µg/mL. In addition, the “% NH4-N Remaining After 2 Weeks Incubation” value is recorded as 0% in assay [2] (0.01 ppm), 39% in assay [2] (0.1 ppm), 74% in [2] (1 ppm) and 91% in [2] (10 ppm).

For the molecule `C=CCSc1ccccc1NS(=O)(=O)c1nc2nc(C)cc(C)n2n1` [Compound 66], the minimal effective concentration in assay [1] stood at 400 µg/mL. Moreover, the “% NH4-N Remaining After 2 Weeks Incubation” value in assay [2] (0.06 ppm) stood at 0%; in assay [2] (0.25 ppm) it was 41%; in assay [2] (1 ppm), 66%; in assay [2] (4 ppm), 78%.

`Cc1cc(C)n2nc(S(=O)(=O)Nc3ccccc3C(=O)c3ccccc3)nc2n1` [Compound 95]: the minimal effective concentration in assay [1] is 400 µg/mL. The “% NH4-N Remaining After 2 Weeks Incubation” value in [2] (0.06 ppm) turned out to be 26%; in assay [2] (0.25 ppm), 36%; in assay [2] (1 ppm), 53%; in assay [2] (4 ppm), 67%.

Take `CCN(C)S(=O)(=O)c1ccccc1NS(=O)(=O)c1nc2ncc(Cl)cn2n1` [Compound 132]: the minimal effective concentration in assay [1] was 400 µg/mL.

On to `O=S(=O)(Nc1ccccc1F)c1nc2ncc(Cl)cn2n1` [Compound 133], for which, in assay [1], the “observed effect (preemergence)” value is “stunting” and the minimal effective concentration was found to be 400 µg/mL.

Consider `CSc1cccc(NS(=O)(=O)c2nc3ncc(Cl)cn3n2)c1` [Compound 134], for which, in [1], the “observed effect (preemergence)” value is on record as “stunting” and the minimal effective concentration was 400 µg/mL.

Turning to `Cc1ccn2nc(S(=O)(=O)Nc3c(Cl)cccc3Cl)nc2n1` [Compound 143, 5-Methyl-N-(2,6-dichlorophenyl)-1,2,4-triazolo[1,5-a]pyrimidine-2-sulfonamide], the pest or weed control at 280.212 g/ha with johnson grass came to 100%; in the assay with yellow nutsedge [3], 100%; in the assay on annual morning glory it was 90%; with crabgrass it was 100%; in the assay with velvetleaf it was 97%; with jimsonweed, 100%. The pest or weed control at 280.212 g/ha in the assay on pigweed came out at 100%; with yellow foxtail, 97%; in the assay with wild oats it was 50%; with barnyardgrass [8], 97%. Moreover, the plant injury at 280.212 g/ha in the assay on sugar beet stood at 100%; in the assay with rice [4], 97%; in the assay with cotton it was 100%; in the assay on rape it was 95%; with wheat it was 50%; with sorghum it was 99%. In addition, the plant injury at 280.212 g/ha in the assay on soybean came out at 70%; with corn, 95%. Further, the pest or weed control at 31 g/ha turned out to be 93% in the assay with yellow nutsedge [5] (0.031 Kg/Ha), 95% in the assay on barnyardgrass [6] (0.031 Kg/Ha), 0% in the assay on sprangletop (0.031 Kg/Ha) and 0% in the assay with rice [7] (0.031 Kg/Ha). The pest or weed control at 500 g/ha in the assay with yellow nutsedge [5] (0.5 Kg/Ha) was found to be 97%; with barnyardgrass [6] (0.5 Kg/Ha), 99%; with sprangletop (0.5 Kg/Ha), 97%; in the assay with rice [7] (0.5 Kg/Ha), 95%. The “% NH4-N Remaining After 2 Weeks Incubation” value in [2] (0.01 ppm) is 50%; in assay [2] (0.1 ppm) it was 78%; in assay [2] (1 ppm), 91%; in [2] (10 ppm), 100%.
